Experiment [1] has as its system CDK2 gene in HCT-116 cells. As to the kind of experiment: qRT-PCR expression profile of the CDK2 gene in HCT-116 cells. Conditions: 24 h, relative to untreated cells (given as decreased x-fold). It is filed as cell-based, human. The method, then: Second, the expression profiles of the CDK2 gene in HCT-116 cells treated with compounds 4d and 4k were determined. The results were compared with the positive control (cells treated with the well-known cytotoxic drug 5-fluorouracil) and the negative control (untreated cells).
Primers specific for the cyclin-dependent kinase-2 (CDK2) and caspase-3 genes were designed using primer blast (https://www.ncbi.nlm.nih.gov/tools/primer-blast/, accessed on 31 October 2021) or primer3 (https://primer3.ut.ee/, accessed on 31 October 2021) software. The selected genes covered the two main groups of the cyclin-dependent kinase-2 (CDK2) gene and the caspase-3 gene. Primers were used in RT-qPCR analysis to amplify fragments of 100–200 bp in length (Table 7).
Total RNA was extracted from each cell culture flask using the RNeasy extraction kit (RNeasy micro kit, cat. no. 74004). Up to 1 × 10^6 cells, depending on the cell line, were disrupted in buffer RLT and homogenized and disrupted. Ethanol was then added to the lysate, creating conditions that promote the selective binding of RNA to the RNeasy membrane. […] The amount of extracted RNA was quantified by estimating the absorbance at 260 nm. The purity of the RNA was checked by measuring the ratio of the absorbance at 260 and 280 nm, where a ratio ranging from 1.8 to 2.0 was taken to be pure. […]
(§1) Quantitative real-time PCR was carried out with the Thermal Cycler Rotorgene Real-Time System II (Rotorgene, South Korea) with the SYBR kit. […]
The relative expression levels through the average cycle threshold (CT) were successfully detected. Average CT values were calculated from the triplicate experiment conducted for each gene; the CT value was detected by subtracting the average CT value of genes from the CT value of actin and GAPDH genes. The relative expression levels of the target genes were calculated using the ΔΔ Ct method and the reference genes GAPDH for the cancer cell line. Finally, a fold change equation […] was used to estimate relative expression levels, while the standard deviation was calculated from the replicated experimental data.
On the technique in general: Real-time PCR tracks product formation cycle by cycle.

The test system of experiment [2] is caspase-3 gene in HCT-116 cells. Description: qRT-PCR expression profile of the caspase-3 gene in HCT-116 cells. Conditions: 24 h, as compared to the negative control. It is filed as cell-based, human. More on the design: dose or concentration left out as unconfirmed.
Excerpt: Normally, apoptosis, or programmed cell death, is considered as a safeguard mechanism for managing stress and maintaining tissue homeostasis. It proceeds through a series of well-ordered biochemical cascades of events, which are regulated by a network of proteins. However, due to genetic and epigenetic mutations, deregulation of these proteins occurs, which results in evasion of apoptosis. This oncogenic transformation is a hallmark of human cancer, and it contributes to other tumorigenic events, including uncontrolled growth, accumulation of further genetic mutations, tumor angiogenesis and metastasis and chemotherapeutic resistance. Therefore, reinitiating selective cancer cell death is a fundamental goal in anticancer drug development. Research in cancer biology has provided fundamental insights into the apoptotic pathways and their deregulation in colon cancer. Moreover, it has identified the molecular targets for reinitiating selective tumor cell death, including antiapoptotic Bcl-2 family proteins, apoptosis inhibitors and activators of the TRAIL death receptor signaling pathway, as well as other apoptotic markers, such as caspases. Among the caspases, which play critical roles in apoptosis, are the initiators, including caspases-8 or 9, and the effectors, including caspase-3 and caspase-7. […] Thus, the real-time quantitative PCR analyses of caspase-3-gene levels following treatment with compounds 4d and 4K at a concentration […] for 24 h, were performed to investigate their potential as proapoptotic agents. […]
Total RNA was extracted from each cell culture flask using the RNeasy extraction kit (RNeasy micro kit, cat. no. 74004). […] The amount of extracted RNA was quantified by estimating the absorbance at 260 nm. The purity of the RNA was checked by measuring the ratio of the absorbance at 260 and 280 nm, where a ratio ranging from 1.8 to 2.0 was taken to be pure. […]
as §1

The target in experiment [3] is T1, CDK2/CyclinA2 enzyme (Homo sapiens, UniProt P24941).
T1 construct: purchased BPS Biosciences, San Diego, CA, USA 79599
As to the kind of experiment: In vitro CDK2 inhibitory assay (Kinase-Glo). It is filed as biochemical. The method, then:
To further substantiate the promising results of the docking analyses of pyrans 4d and 4K in the ATP active site of CDK2, their in vitro potencies to inhibit the enzyme activity were evaluated over a concentration range of 0.01−10 µM.
CDK-2 inhibition activity of the studied compounds 4d and 4k was evaluated using a commercial CDK2 […] (cat. no.: 79599; BPS Biosciences, San Diego, CA, USA) following the manufacturer’s instructions. Briefly, different concentrations of each compound or the positive control BMS-265246 (0.01, 0. 1, 1 or 10 µM) were incubated with 20 µL of diluted CDK2/CyclinA2 enzyme at 30 °C for 45 min. Following the addition of 50 µL Kinase-Glo® Reagent to each well, the plate was incubated at room temperature for 15 min. Then, the luminescence signal was measured using the microplate reader. The CDK2 inhibitory activity was expressed as inhibition percentage, which was determined by comparison with a control experiment for comparative purposes. IC50 values were deduced from the curves. All measurements were performed in triplicate.

In experiment [4] the test system is CDK2 protein in HCT-116 cells. As to the kind of experiment: Quantitative determination of CDK2 concentration in HCT-116 cell lysates (Human CDK2 ELISA Kit). It is filed as cell-based. To be noted: negative control 7.466 ng/mL. The method, then: First, the commercial Human CDK2 ELISA Kit was used to estimate concentrations of the protein in the lysate of HCT-116 cells treated with 4d and 4k. The results were compared with the positive (cells treated with the reference CDK inhibitor, BMS-265246) and negative control experiments.
The in vitro quantitative measurement of concentration of CDK2 in lysates of HCT-116 cells was carried out using a commercial Human CDK2 ELISA Kit (cat. no.: LS-F22176; LifeSpan Biosciences Inc., Seattle, WA, USA) in the presence or absence of the studied compounds (4d and 4k), following the manufacturer’s instructions. Briefly, standards, blanks or samples were first incubated in the corresponding wells for 90 min at 37 °C. Then, biotinylated detection antibody was added to each well and the plate was incubated for 1 h at 37 °C followed by the addition of an Avidin–Horseradish Peroxidase (HRP) conjugate which binds to the biotin. After incubation of the mixture for 30 min at 37 °C, unbound Avidin–HRP conjugate was washed away and a TMB substrate was then added which reacts with the HRP enzyme, resulting in color development. After that, the reaction was stopped using a sulfuric acid stop solution to terminate the color-development reaction and the optical density of each well was measured using a microplate reader at 450 nm. BMS-265246 was used as the standard drug for inhibition of CDK2. All measurements were performed in triplicate.

As for `O=c1[nH]cc(F)c(=O)[nH]1` [5-FU, 5-fluorouracil, reference compound], the “CDK2 transcript level, fold” value in experiment [1] was 0.29 fold. Moreover, the “caspase-3 gene transcription level, fold increase” value in experiment [2] came to 7.31 fold.

With `CCCCOc1c(C(=O)c2c(F)cc(C)cc2F)c[nH]c2nncc1-2` [BMS-265246, reference compound], the “decrease of CDK2 activity” value in experiment [3] (at 10 µM) was 92.3%. Moreover, the IC50 (in general, the concentration needed to halve the response being measured) in experiment [3] (deduced from curves over 0.01-10 µM, read-out: IC50 against CDK2) amounted to 36 nM. For the same compound, the “concentration of CDK2 in lysate of treated HCT-116 cells” value in experiment [4] was found to be 2.229 ng/mL.

(Values after paper PMC9317316, “Synthesis and Evaluation of Some New 4H-Pyran Derivatives as Antioxidant, Antibacterial and Anti-HCT-116 Cells of CRC, with Molecular Docking, Antiproliferative, Apoptotic and ADME Investigations” (Pharmaceuticals, 2022).)
